# Laboratory results: ChEMBL document CHEMBL1201862, “PubChem BioAssay data set” (2004)
#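 Method: 48-hour compound exposure of cells in 96-well plates, five concentrations, linear interpolation of endpoints. GI50: concentration for 50% inhibition of growth.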 Activity calls are given as the source filed them. Rule as the data show it: active = GI50 up to about 1.1 µM and inactive = higher.
# Legend:
# Assay in all cases: NCI tumour cell line growth inhibition, 48 h
# [1] = system: UACC-62
# [2] = system: HOP-92
# [3] = system: LXFL 529
# [4] = system: SNB-78
# [5] = system: SW-620
# [6] = system: NCI-H23
# [7] = system: OVCAR-3
# [8] = system: K562
# [9] = system: M14
# [10] = system: SF-268
# [11] = system: SK-MEL-2
# [12] = system: CCRF-CEM
# [13] = system: ACHN
# [14] = system: NCI-H522
SMILES,GI50 [1],GI50 [2],GI50 [3],GI50 [4],GI50 [5],GI50 [6],GI50 [7],GI50 [8],GI50 [9],GI50 [10],GI50 [11],GI50 [12],GI50 [13],GI50 [14]
c1ccc(CN2CCCCC(Sc3ccccc3)CC2)cc1 (stereo not drawn),36 µM (inactive),28.5 µM (inactive),17.7 µM (inactive),27.2 µM (inactive),1.53 µM (inactive),30.1 µM (inactive),33.9 µM (inactive),15.5 µM (inactive),16.1 µM (inactive),> 100 µM (inactive),32.9 µM (inactive),19.2 µM (inactive),47.3 µM (inactive),–
c1cncc(C2c3[nH]c4ccccc4c3CCN2CCN2CCCCC2)c1 (stereo not drawn),> 100 µM (inactive),30 µM (inactive),> 100 µM (inactive),> 100 µM (inactive),> 100 µM (inactive),> 100 µM (inactive),> 100 µM (inactive),35.6 µM (inactive),16.1 µM (inactive),> 100 µM (inactive),–,56.4 µM (inactive),> 100 µM (inactive),> 100 µM (inactive)
NC(=O)N/N=C(/c1nc2ccc([N+](=O)[O-])cc2nc1O)C(O)c1ccco1 (stereo not drawn),29.2 µM (inactive),> 100 µM (inactive),36.8 µM (inactive),> 100 µM (inactive),44.6 µM (inactive),> 100 µM (inactive),> 100 µM (inactive),33.9 µM (inactive),93.8 µM (inactive),63.4 µM (inactive),–,34.7 µM (inactive),28.4 µM (inactive),14.7 µM (inactive)
Cc1c(C(=N)N)oc2ccccc12,> 100 µM (inactive),> 100 µM (inactive),> 100 µM (inactive),> 100 µM (inactive),> 100 µM (inactive),> 100 µM (inactive),> 100 µM (inactive),> 100 µM (inactive),> 100 µM (inactive),> 100 µM (inactive),–,> 100 µM (inactive),> 100 µM (inactive),> 100 µM (inactive)
COc1cc2c([C@@H](OC(=O)c3ccccc3)c3ccc4c(c3)OCO4)nccc2c(OC)c1OC,14.7 µM (inactive),65.5 µM (inactive),16.7 µM (inactive),85.7 µM (inactive),> 100 µM (inactive),23.7 µM (inactive),25.6 µM (inactive),24.9 µM (inactive),53.6 µM (inactive),48.8 µM (inactive),–,28.6 µM (inactive),–,19.4 µM (inactive)
CC12CCC([C@H](N3CCOCC3)/C1=N\OCCN1CCCC1)C2(C)C (stereo partly drawn),> 100 µM (inactive),> 100 µM (inactive),> 100 µM (inactive),> 100 µM (inactive),> 100 µM (inactive),> 100 µM (inactive),> 100 µM (inactive),> 100 µM (inactive),> 100 µM (inactive),> 100 µM (inactive),> 100 µM (inactive),> 100 µM (inactive),> 100 µM (inactive),> 100 µM (inactive)
CC(=O)O[C@H]1CCC2[C@@H]3CCC4c5nonc5CC[C@]4(C)C3CC[C@@]21C (stereo partly drawn),> 10 µM (inactive),> 10 µM (inactive),> 10 µM (inactive),> 10 µM (inactive),> 10 µM (inactive),> 10 µM (inactive),–,> 10 µM (inactive),> 10 µM (inactive),> 10 µM (inactive),> 10 µM (inactive),> 10 µM (inactive),88.7 µM (inactive),> 10 µM (inactive)
Cn1cnc([N+](=O)[O-])c1Sc1nc2cc(Cl)c(F)cc2[nH]1,14 µM (inactive),13.8 µM (inactive),5.7 µM (inactive),2.43 µM (inactive),5.73 µM (inactive),11.5 µM (inactive),> 10 µM (inactive),–,13.5 µM (inactive),10.1 µM (inactive),–,–,12.9 µM (inactive),–
COC(=O)c1cc2cc(OC)c(OC)cc2cc(C(=O)OC)c1=O,> 100 µM (inactive),> 100 µM (inactive),> 100 µM (inactive),> 100 µM (inactive),35.3 µM (inactive),> 100 µM (inactive),> 100 µM (inactive),> 100 µM (inactive),> 100 µM (inactive),> 100 µM (inactive),> 100 µM (inactive),> 100 µM (inactive),> 100 µM (inactive),> 100 µM (inactive)
N=C1NC2(O)C(=O)c3ccccc3C2(O)N1 (stereo not drawn),> 100 µM (inactive),> 100 µM (inactive),> 100 µM (inactive),> 100 µM (inactive),> 100 µM (inactive),> 100 µM (inactive),> 100 µM (inactive),> 100 µM (inactive),> 100 µM (inactive),> 100 µM (inactive),> 100 µM (inactive),> 100 µM (inactive),> 100 µM (inactive),> 100 µM (inactive)
COC1C(OC(=O)c2ccc(C)[nH]2)C(O)C(Oc2ccc3c(O)c(NC(=O)c4c[nH]c(C(=O)Nc5c(O)c6ccc(OC7OC(C)(C)C(OC)C(OC(=O)c8ccc(C)[nH]8)C7O)c(C)c6oc5=O)c4C)c(=O)oc3c2C)OC1(C)C (stereo not drawn),0.724 µM (active),2.44 µM (inactive),1.07 µM (active),1.56 µM (inactive),4.34 µM (inactive),1.24 µM (inactive),3.26 µM (inactive),2.84 µM (inactive),–,0.67 µM (active),2.28 µM (inactive),2.34 µM (inactive),2.53 µM (inactive),–
COc1cc(C(=O)C/C(CCC(=O)Nc2ccc(Cl)cc2Cl)=N/Nc2nnc(C)n2N)ccc1O,> 100 µM (inactive),> 100 µM (inactive),> 100 µM (inactive),> 100 µM (inactive),> 100 µM (inactive),> 100 µM (inactive),> 100 µM (inactive),> 10 µM (inactive),> 100 µM (inactive),> 100 µM (inactive),> 100 µM (inactive),> 100 µM (inactive),> 100 µM (inactive),> 100 µM (inactive)
Nn1c(S)nnc1N/N=C1/C(=O)Nc2ccccc21,71.8 µM (inactive),56.1 µM (inactive),39.5 µM (inactive),> 100 µM (inactive),78.2 µM (inactive),16.9 µM (inactive),80.4 µM (inactive),59 µM (inactive),62.1 µM (inactive),56 µM (inactive),> 100 µM (inactive),47.3 µM (inactive),83.8 µM (inactive),44.9 µM (inactive)
COc1ccc(C2=NN(c3ccccc3)C[N+](c3ccc(C)cc3)=N2)cc1,–,–,16.3 µM (inactive),27.9 µM (inactive),25.6 µM (inactive),41.3 µM (inactive),23 µM (inactive),14.6 µM (inactive),–,70.6 µM (inactive),–,19.3 µM (inactive),50.2 µM (inactive),12.7 µM (inactive)
CCOC(=O)/C(=C/c1cccc(C#N)c1)N(CC)CC,> 100 µM (inactive),> 100 µM (inactive),> 100 µM (inactive),> 100 µM (inactive),> 100 µM (inactive),> 100 µM (inactive),–,> 100 µM (inactive),> 100 µM (inactive),> 100 µM (inactive),> 100 µM (inactive),> 100 µM (inactive),> 100 µM (inactive),> 100 µM (inactive)
N#CC(C(=O)/C(=N/N)C(C#N)c1ccccc1)c1ccccc1 (stereo not drawn),> 100 µM (inactive),> 100 µM (inactive),> 100 µM (inactive),> 100 µM (inactive),> 100 µM (inactive),> 100 µM (inactive),> 100 µM (inactive),> 100 µM (inactive),> 100 µM (inactive),> 100 µM (inactive),> 100 µM (inactive),> 100 µM (inactive),> 100 µM (inactive),> 100 µM (inactive)
CC1=Nc2ccccc2S(=O)(=O)N1,> 100 µM (inactive),> 100 µM (inactive),> 100 µM (inactive),> 100 µM (inactive),> 100 µM (inactive),> 100 µM (inactive),> 100 µM (inactive),> 100 µM (inactive),> 100 µM (inactive),> 100 µM (inactive),> 100 µM (inactive),> 100 µM (inactive),> 100 µM (inactive),> 100 µM (inactive)
CC12CCC(=O)N1c1cccnc1N2 (stereo not drawn),> 100 µM (inactive),> 100 µM (inactive),> 100 µM (inactive),> 100 µM (inactive),> 100 µM (inactive),> 100 µM (inactive),> 100 µM (inactive),> 100 µM (inactive),> 100 µM (inactive),> 100 µM (inactive),> 100 µM (inactive),> 100 µM (inactive),> 100 µM (inactive),> 100 µM (inactive)
CCc1ccc(Nc2ccc([N+](=O)[O-])cc2[N+](=O)[O-])cc1,56.6 µM (inactive),–,50.9 µM (inactive),87.3 µM (inactive),> 100 µM (inactive),71.1 µM (inactive),44.4 µM (inactive),29.8 µM (inactive),> 100 µM (inactive),–,> 100 µM (inactive),35.2 µM (inactive),> 100 µM (inactive),–
C[C@]12CC(C#N)C(=O)C(O)=C1CC[C@@H]1C2CC[C@@]2(C)C1CC[C@@H]2O (stereo partly drawn),3.99 µM (inactive),10.7 µM (inactive),65.5 µM (inactive),65.3 µM (inactive),> 100 µM (inactive),35.6 µM (inactive),65.5 µM (inactive),46.9 µM (inactive),65.5 µM (inactive),41.7 µM (inactive),51.8 µM (inactive),45.1 µM (inactive),47.2 µM (inactive),–
